Reference: patent US12018021B2 (UCB Biopharma SRL, priority 2018, dated 2024)

Biological target: IgE-Tb / FcεRIα-Y131A-AF488 (Homo sapiens, UniProt P01854)
Test: IgE-Tb / FcεRIα-Y131A-AF488 FRET assay (protocol for examples 1 to 233)
Format: binding
Details: examples 1 to 233: 5 nM IgE-Tb, 25 nM FcεRIα-Y131A-AF488, incubated 2 hours at room temperature; read-out: Y131A FRET IC50 range
Summary of the method: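 Compounds (top final concentration usually 10 μM, 3-fold, 10 points, 2% DMSO) incubated 2 h at room temperature with IgE-Tb (5 nM) and FcεRIα-Y131A-AF488 (25 nM). Background from 200 nM unlabelled receptor subtracted; FRET ratio 520/495 nm after 330 nm excitation gave percent inhibition, fitted four-parameter for IC50.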

IgE-Tb / FcεRIα-Y131A-AF488, sequence (P01854 1-427 limits assumed, stated change not applied): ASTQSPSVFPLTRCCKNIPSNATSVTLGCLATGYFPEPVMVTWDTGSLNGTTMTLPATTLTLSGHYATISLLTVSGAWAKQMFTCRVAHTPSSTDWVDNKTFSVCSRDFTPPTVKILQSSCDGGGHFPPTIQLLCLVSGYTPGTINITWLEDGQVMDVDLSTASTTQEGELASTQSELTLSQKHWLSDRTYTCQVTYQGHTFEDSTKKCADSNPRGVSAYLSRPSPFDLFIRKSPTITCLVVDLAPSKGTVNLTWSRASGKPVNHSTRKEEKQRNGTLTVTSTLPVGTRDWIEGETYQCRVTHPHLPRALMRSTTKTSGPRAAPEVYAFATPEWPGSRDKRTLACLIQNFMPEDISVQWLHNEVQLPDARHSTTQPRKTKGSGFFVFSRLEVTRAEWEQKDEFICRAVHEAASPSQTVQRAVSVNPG

Row | Structure (SMILES) | IC50 [nM]
1 | CCn1nc(C)cc1Nc1nncn1[C@H]1CCc2sc(NC(=O)C3CC3)c(C(=O)NCC3CC3)c2C1 [Example 225, (5S)-2-(cyclopropanecarbonylamino)-N-(cyclopropylmethyl)-5-[3-[(2-ethyl-5-methyl-pyrazol-3-yl)amino]-1,2,4-triazol-4-yl]-4,5,6,7-tetrahydrobenzothiophene-3-carboxamide] | < 1000
2 | Cc1cc(Nc2nncn2[C@H]2CCc3sc(NC(=O)C4CC4)c(C(=O)NCC4CC4)c3C2)n(C2CC2)n1 [Example 226, (5S)-2-(cyclopropanecarbonylamino)-N-(cyclopropylmethyl)-5-[3-[(2-cyclopropyl-5-methyl-pyrazol-3-yl)amino]-1,2,4-triazol-4-yl]-4,5,6,7-tetrahydrobenzothiophene-3-carboxamide] | < 1000
3 | COc1nn(C)cc1Nc1nncn1[C@H]1CCc2sc(NC(=O)C3CC3)c(C(=O)NCC3CC3)c2C1 [Example 227, (5S)-2-(cyclopropanecarbonylamino)-N-(cyclopropylmethyl)-5-[3-[(3-methoxy-1-methy-pyrazol-4-yl)amino]-1,2,4-triazol-4-yl]-4,5,6,7-tetrahydrobenzothiophene-3-carboxamide] | < 1000
4 | CCc1cc(Nc2nncn2[C@H]2CCc3sc(NC(=O)C4CC4)c(C(=O)NCC4CC4)c3C2)n(C)n1 [Example 228, (5S)-2-(cyclopropanecarbonylamino)-N-(cyclopropylmethyl)-5-[3-[(5-ethyl-2-methyl-pyrazol-3-yl)amino]-1,2,4-triazol-4-yl]-4,5,6,7-tetrahydrobenzothiophene-3-carboxamide] | < 1000
5 | Cn1nc(C(F)F)cc1Nc1nncn1[C@H]1CCc2sc(NC(=O)C3CC3)c(C(=O)NCC3CC3)c2C1 [Example 229, (5S)-2-(Cyclopropanecarbonylamino)-N-(cyclopropylmethyl)-5-[3-[[5-(difluoromethyl)-2-methyl-pyrazol-3-yl]amino]-1,2,4-triazol-4-yl]-4,5,6,7-tetrahydrobenzothiophene-3-carboxamide] | < 1000
6 | Cc1cn(C)nc1Nc1nncn1[C@H]1CCc2sc(NC(=O)C3CC3)c(C(=O)NCC3CC3)c2C1 [Example 230, (5S)-2-(Cyclopropanecarbonylamino)-N-(cyclopropylmethyl)-5-[3-[(1,4-dimethylpyrazol-3-yl)amino]-1,2,4-triazol-4-yl]-4,5,6,7-tetrahydrobenzothiophene-3-carboxamide] | < 1000
7 | COC(=O)c1cc(Nc2nncn2[C@H]2CCc3sc(NC(=O)C4CC4)c(C(=O)NCC4CC4)c3C2)n(C)n1 [Example 231, Methyl 5-[[4-[(5S)-2-(cyclopropanecarbonylamino)-3-(cyclopropylmethylcarbamoyl)-4,5,6,7-tetrahydrobenzothiophen-5-yl]-1,2,4-triazol-3-yl]amino]-1-methyl-pyrazole-3-carboxylate] | < 1000
8 | Cn1nc(C(F)(F)F)cc1Nc1nccn1[C@H]1CCc2sc(NC(=O)C3CC3)c(C(=O)NCC3CC3)c2C1 [Example 232, (5S)-2-(Cyclopropanecarbonylamino)-N-(cyclopropylmethyl)-5-[2-[[2-methyl-5-(trifluoromethyl)pyrazol-3-yl]amino]imidazol-1-yl]-4,5,6,7-tetrahydrobenzothiophene-3-carboxamide] | < 1000
9 | Cn1nc(C(=O)O)cc1Nc1nncn1[C@H]1CCc2sc(NC(=O)C3CC3)c(C(=O)NCC3CC3)c2C1 [Example 233, 5-[[4-[(5S)-2-(Cyclopropanecarbonylamino)-3-(cyclopropylmethylcarbamoyl)-4,5,6,7-tetrahydrobenzothiophen-5-yl]-1,2,4-triazol-3-yl]amino]-1-methyl-pyrazole-3-carboxylic acid] | < 1000
